Data on 22 molecules can be found in BindingDB's records for doi:10.1021/jm070299x (Bristol Myers Squibb, 2007).

Each structure is given as a SMILES string. A value given as a limit tells only on which side of the number the result lay.

One assay addresses Inosine-5'-monophosphate dehydrogenase 2 (Homo sapiens, UniProt P12268). Briefly: IMPDH2 Enzyme Inhibition and Human T-Lymphoblast (CEM) Proliferation Inhibition Assays. The conditions noted are these: pH 8; 25 °C. How it is done:
Inhibition assays were performed using recombinant human IMPDH type 2 and varying concentrations of inhibitor. The production of NADH was monitored by following changes in absorbance at 340 nm. […] The in vivo activities of compounds were also evaluated the inhibition of T-cell proliferation in CEM lymphoblast cells. The EC50/IC50 values were calculated using a four-parameter logistic plot.
`CN(C)S(=O)(=O)c1ccc(C(C)(C)NC(=O)c2cc3[nH]c4ccccc4c(=O)c3cc2F)cc1` [N-{2-[4-(dimethylsulfamoyl)phenyl]propan-2-yl}-2-fluoro-9-oxo-9,10-dihydroacridine-3-carboxamide]: the midpoint of inhibition, the IC50, lay at 660 nM. Still for that read-out and setting: the result for `CCOC(=O)c1ccc2c(=O)c3ccccc3[nH]c2c1` [ethyl 9-oxo-9,10-dihydroacridine-3-carboxylate] reads over 10000 nM; that for `Cc1ccc(C(C)(C)NC(=O)c2cc3[nH]c4ccccc4c(=O)c3cc2F)cn1` [2-fluoro-N-[2-(6-methylpyridin-3-yl)propan-2-yl]-9-oxo-9,10-dihydroacridine-3-carboxamide], 750 nM; that for `CC(C)(NC(=O)c1cc2[nH]c3ccccc3c(=O)c2cc1F)c1ccccc1` [2-fluoro-9-oxo-N-(2-phenylpropan-2-yl)-9,10-dihydroacridine-3-carboxamide], 830 nM.

For the molecule `CC(C)(NC(=O)c1ccc2c(=O)c3ccccc3[nH]c2c1)c1ccccn1` [9-oxo-N-[2-(pyridin-2-yl)propan-2-yl]-9,10-dihydroacridine-3-carboxamide], the IC50 (usually the concentration that gives 50% inhibition) worked out at 2200 nM. The molecule `COc1cc(C(C)(C)NC(=O)c2cc3[nH]c4ccccc4c(=O)c3cc2F)cnc1N1CCOCC1` [2-fluoro-N-{2-[5-methoxy-6-(morpholin-4-yl)pyridin-3-yl]propan-2-yl}-9-oxo-9,10-dihydroacridine-3-carboxamide] came in with an IC50 of 810 nM. In turn, `CC(C)(NC(=O)c1cc2[nH]c3ccccc3c(=O)c2cc1F)c1cccc(S(C)(=O)=O)c1` [2-fluoro-N-[2-(3-methanesulfonylphenyl)propan-2-yl]-9-oxo-9,10-dihydroacridine-3-carboxamide] returned a 50% inhibitory concentration (IC50) of 580 nM. For the molecule `CN(C)S(=O)(=O)c1cccc(C(C)(C)NC(=O)c2cc3[nH]c4ccccc4c(=O)c3cc2F)c1` [N-{2-[3-(dimethylsulfamoyl)phenyl]propan-2-yl}-2-fluoro-9-oxo-9,10-dihydroacridine-3-carboxamide], the IC50 is 380 nM.

Take `CC(C)(NC(=O)c1ccc2c(=O)c3ccccc3[nH]c2c1)c1ccccc1` [9-oxo-N-(2-phenylpropan-2-yl)-9,10-dihydroacridine-3-carboxamide]: the IC50 amounted to 2100 nM. On to `CC(C)(NC(=O)c1cc2[nH]c3ccccc3c(=O)c2cc1F)c1cccnc1` [2-fluoro-9-oxo-N-[2-(pyridin-3-yl)propan-2-yl]-9,10-dihydroacridine-3-carboxamide], for which the IC50 worked out at 420 nM. In turn, `CN(C)CCOc1ccc(C(C)(C)NC(=O)c2cc3[nH]c4ccccc4c(=O)c3cc2F)cc1` [N-(2-{4-[2-(dimethylamino)ethoxy]phenyl}propan-2-yl)-2-fluoro-9-oxo-9,10-dihydroacridine-3-carboxamide] returned an IC50 of 560 nM. `CC(C)(NC(=O)c1cc2[nH]c3ccccc3c(=O)c2cc1F)c1ccccn1` [2-fluoro-9-oxo-N-[2-(pyridin-2-yl)propan-2-yl]-9,10-dihydroacridine-3-carboxamide] showed an IC50 of 1000 nM.

`CC(C)(NC(=O)c1cc2[nH]c3ccccc3c(=O)c2cc1F)c1ccc(S(C)(=O)=O)cc1` [2-fluoro-N-[2-(4-methanesulfonylphenyl)propan-2-yl]-9-oxo-9,10-dihydroacridine-3-carboxamide] had an IC50 of 480 nM.

Molecule `CC(C)(C)NC(=O)c1ccc2c(=O)c3ccccc3[nH]c2c1` [N-tert-butyl-9-oxo-9,10-dihydroacridine-3-carboxamide] returned an IC50 of 3300 nM. With `CC(C)(NC(=O)c1ccc2c(=O)c3ccccc3[nH]c2c1)c1ccncc1` [9-oxo-N-[2-(pyridin-4-yl)propan-2-yl]-9,10-dihydroacridine-3-carboxamide], inhibition was half-maximal at 2300 nM (IC50). `CN(C)c1cc(C(C)(C)NC(=O)c2cc3[nH]c4ccccc4c(=O)c3cc2F)ccn1` [N-{2-[2-(dimethylamino)pyridin-4-yl]propan-2-yl}-2-fluoro-9-oxo-9,10-dihydroacridine-3-carboxamide] came in with an IC50 of 640 nM. `CN(C)c1ccc(C(C)(C)NC(=O)c2cc3[nH]c4ccccc4c(=O)c3cc2F)cn1` [N-{2-[6-(dimethylamino)pyridin-3-yl]propan-2-yl}-2-fluoro-9-oxo-9,10-dihydroacridine-3-carboxamide] yielded an IC50 of 850 nM. Same read-out and setting: the result for `CC(C)(NC(=O)c1cc2[nH]c3ccccc3c(=O)c2cc1F)c1ccc(N2CCOCC2)nc1` [2-fluoro-N-{2-[6-(morpholin-4-yl)pyridin-3-yl]propan-2-yl}-9-oxo-9,10-dihydroacridine-3-carboxamide] reads 660 nM; that for `CCN1CCN(c2ccc(C(C)(C)NC(=O)c3cc4[nH]c5ccccc5c(=O)c4cc3F)cn2)CC1` [Acridone-Based Inhibitor, 4m], 770 nM. With `CC(C)(NC(=O)c1ccc2c(=O)c3ccccc3[nH]c2c1)c1cccnc1` [9-oxo-N-[2-(pyridin-3-yl)propan-2-yl]-9,10-dihydroacridine-3-carboxamide], half-maximal inhibition (IC50) required 2200 nM. On to `Cc1cc(C(C)(C)NC(=O)c2cc3[nH]c4ccccc4c(=O)c3cc2F)cnc1N1CCOCC1` [2-fluoro-N-{2-[5-methyl-6-(morpholin-4-yl)pyridin-3-yl]propan-2-yl}-9-oxo-9,10-dihydroacridine-3-carboxamide], for which the IC50 was 870 nM. In turn, `CC(C)(NC(=O)c1cc2[nH]c3ccccc3c(=O)c2cc1F)c1cnc2c(c1)OCCN2` [2-fluoro-9-oxo-N-(2-{2H,3H,4H-pyrido[3,2-b][1,4]oxazin-7-yl}propan-2-yl)-9,10-dihydroacridine-3-carboxamide] registered an IC50 of 920 nM.

The assay is the same for the next values; noted with them: pH 8; 25 °C; read-out: IC50.
Turning to `CCOC(=O)c1ccc2c(=O)c3ccccc3[nH]c2c1` [ethyl 9-oxo-9,10-dihydroacridine-3-carboxylate], the IC50 is 59 nM.
